The results in this text go back to US4178436A, “Semi-synthetic oleandomycin derivatives-C8 modifications” (Pfizer Inc., priority 1978, dated 1979).

Assay [1] relates to Staph.aureus 01A400R. The assay is described as follows: in vitro minimum inhibitory concentration (MIC) method of Ericsson and Sherris. Type of assay: cell-based. The settings on record: Staphylococcus aureus, Gram-positive. The text has this:
(§1) The oleandomycin compounds of the present invention are effective in inhibiting the growth of microorganisms, especially Gram-positive microorganisms. That is, the high activity against Gram-positive organisms in general shown by these compounds can be contrasted in some respects with the lower activity show against certain especially virulent and well known Gram-negative organisms. The following table illustrates the in vitro antibiotic spectrum of the compound of the instant invention. The tests were run according to the "minimum inhibitory concentration" (MIC) method of Ericsson and Sherris [H. M. Ericsson and J. C. Sherris, Acta. Pathol. Microbiol. Scand. Suppl., 217B, 64 (1971)].

Assay [2] deals with Neisseriae Sicca 66C001. Described as above. Type of assay: cell-based. Conditions: Neisseriae Sicca 66C001, Gram-negative.
Excerpt: as §1

For assay [3], the system named is Strep.py 02C203. Described as above. Type of assay: cell-based. Conditions: Strep.py 02C203, Gram-positive.
Excerpt: as §1

Assay [4] concerns Staph.aureus 01A005. The assay is described as above. Type of assay: cell-based. The settings on record: Staphylococcus aureus; Staph.aureus 01A005, Gram-positive.
Excerpt: as §1

Assay [5] deals with Klebsiella pn. 53A009. The description is as above. Type of assay: cell-based. The settings on record: Klebsiella pn. 53A009, Gram-negative.
Excerpt: as §1

Assay [6] has as its system Salm.typhm. 58D009. Described as above. Type of assay: cell-based. Conditions: Salm.typhm. 58D009, Gram-negative.
Excerpt: as §1

For assay [7], the system named is E.coli 51A226. The assay is described as above. Type of assay: cell-based. The settings on record: Escherichia coli; E.coli 51A226, Gram-negative.
Excerpt: as §1

Assay [8] deals with Staph. aureus 01A005. The experiment in a line: protection against in vivo infection in mice infected with Staph. aureus 01A005 (test procedure of Retsema). The settings on record: subcutaneous or oral administration to mice infected with Staph. aureus 01A005; compared with natural oleandomycin. The procedure: The ability of some compounds of the present invention to protect against in vivo infections was determined by subcutaneous or oral administration to mice infected with Staph. aureus 01A005. Using the test procedure of Retsema [J. A. Retsema, et al., Antimicr.

The structures appear in SMILES notation. Values after ≈ are worked out from the molar mass of the structure shown. A value given as a limit tells only on which side of the number the result lay.

Consider `CO[C@H]1C[C@H](O[C@H]2[C@H](C)[C@@H](O[C@@H]3O[C@H](C)C[C@H](N(C)C)[C@H]3OC(C)=O)[C@@H](C)C[C@@H](CO)C(=O)[C@H](C)[C@@H](O)[C@@H](C)[C@@H](C)OC(=O)[C@@H]2C)O[C@@H](C)[C@@H]1O` [Example 2, 8,8a-Deoxy-8-hydroxymethyl-2'-acetyloleandomycin], for which the MIC was 12.5 µg/mL (≈ 17.1 µM) in assay [1]; 0.39 µg/mL (≈ 0.533 µM) in assay [2]; 1.56 µg/mL (≈ 2.13 µM) in assay [3]; 6.25 µg/mL (≈ 8.54 µM) in assay [4]; over 200 µg/mL in assay [5]; over 200 µg/mL in assay [6]. The MIC in assay [7] is over 200 µg/mL. In addition, in assay [8], the protection against infection result was “protection against infection which was comparable to natural oleandomycin”.

Regarding `CO[C@H]1C[C@H](O[C@H]2[C@H](C)[C@@H](O[C@@H]3O[C@H](C)C[C@H](N(C)C)[C@H]3OC(C)=O)[C@@H](C)C[C@@H](COS(=O)(=O)c3ccc(C)cc3)C(=O)[C@H](C)[C@@H](O)[C@@H](C)[C@@H](C)OC(=O)[C@@H]2C)O[C@@H](C)[C@@H]1O` [Example 5, 8,8a-Deoxy-8-tosyloxymethyl-2'-acetyloleandomycin], the MIC was over 200 µg/mL in assay [1]; 3.12 µg/mL (≈ 3.52 µM) in assay [2]; 3.12 µg/mL (≈ 3.52 µM) in assay [3]; 100 µg/mL (≈ 113 µM) in assay [4]; over 200 µg/mL in assay [5]; over 200 µg/mL in assay [6]. This molecule had an MIC in assay [7] of over 200 µg/mL.

For `CO[C@H]1C[C@H](O[C@H]2[C@H](C)[C@@H](O[C@@H]3O[C@H](C)C[C@H](N(C)C)[C@H]3O)[C@@H](C)C[C@@H](CN=[N+]=[N-])C(=O)[C@H](C)[C@@H](O)[C@@H](C)[C@@H](C)OC(=O)[C@@H]2C)O[C@@H](C)[C@@H]1OC(C)=O` [Example 9, 8,8a-Deoxy8-azidomethyl-4"-acetyloleandomycin], the MIC was 12.5 µg/mL (≈ 16.5 µM) in assay [1]; 0.2 µg/mL (≈ 0.264 µM) in assay [2]; 3.1 µg/mL (≈ 4.1 µM) in assay [3]; 3.1 µg/mL (≈ 4.1 µM) in assay [4]; over 200 µg/mL in assay [5]; over 200 µg/mL in assay [6]. For the same molecule, the MIC in assay [7] was over 200 µg/mL. In assay [8], the protection against infection result is recorded as “protection against infection which was comparable to natural oleandomycin”.

Regarding `CO[C@H]1C[C@H](O[C@H]2[C@H](C)[C@@H](O[C@@H]3O[C@H](C)C[C@H](N(C)C)[C@H]3O)[C@@H](C)C[C@@H](CN)C(=O)[C@H](C)[C@@H](O)[C@@H](C)[C@@H](C)OC(=O)[C@@H]2C)O[C@@H](C)[C@@H]1OC(C)=O` [Example 11, 8,8a-Deoxy-8-aminomethyl-4"-acetyloleandomycin], the MIC in assay [1] was 25 µg/mL (≈ 34.2 µM); in assay [2] it was at most 0.1 µg/mL; in assay [3] it was 50 µg/mL (≈ 68.4 µM); in assay [4], 6.25 µg/mL (≈ 8.55 µM); in assay [5], over 200 µg/mL; in assay [6] it was over 200 µg/mL. This molecule gave an MIC in assay [7] of over 200 µg/mL.

As for `CO[C@H]1C[C@H](O[C@H]2[C@H](C)[C@@H](O[C@@H]3O[C@H](C)C[C@H](N(C)C)[C@H]3O)[C@@H](C)C[C@@H](CCl)C(=O)[C@H](C)[C@@H](O)[C@@H](C)[C@@H](C)OC(=O)[C@@H]2C)O[C@@H](C)[C@@H]1OC(C)=O` [Example 13, 8,8a-Deoxy-8-chloromethyl-4'-acetyloleandomycin], the MIC in assay [1] was 50 µg/mL (≈ 66.6 µM); in assay [2] it was at most 0.1 µg/mL; in assay [3] it was 1.56 µg/mL (≈ 2.08 µM); in assay [4] it was 3.12 µg/mL (≈ 4.16 µM); in assay [5], over 200 µg/mL; in assay [6] it was over 200 µg/mL. The molecule also registered an MIC in assay [7] of 200 µg/mL (≈ 267 µM). Further, in assay [8], the protection against infection entry is “protection against infection which was comparable to natural oleandomycin”.

`CO[C@H]1C[C@H](O[C@H]2[C@H](C)[C@@H](O[C@@H]3O[C@H](C)C[C@H](N(C)C)[C@H]3O)[C@@H](C)C[C@@H](CN(C)C)C(=O)[C@H](C)[C@@H](O)[C@@H](C)[C@@H](C)OC(=O)[C@@H]2C)O[C@@H](C)[C@@H]1OC(C)=O` [Example 14, 8,8a-Deoxy-8-dimethylaminomethyl-4"-acetyloleandomycin]: the MIC in assay [1] is 50 µg/mL (≈ 65.9 µM); in assay [2], 1.56 µg/mL (≈ 2.06 µM); in assay [3], 50 µg/mL (≈ 65.9 µM); in assay [4] it was 25 µg/mL (≈ 32.9 µM); in assay [5] it was over 200 µg/mL; in assay [6] it was over 200 µg/mL. The MIC in assay [7] was over 200 µg/mL.

Consider `CO[C@H]1C[C@H](O[C@H]2[C@H](C)[C@@H](O[C@@H]3O[C@H](C)C[C@H](N(C)C)[C@H]3O)[C@@H](C)C[C@@H](CNC(C)=O)C(=O)[C@H](C)[C@@H](O)[C@@H](C)[C@@H](C)OC(=O)[C@@H]2C)O[C@@H](C)[C@@H]1OC(C)=O` [Example 19, 8,8a-Deoxy-8-(N-acetyl)aminomethyl-4"-acetyloleandomycin], for which the protection against infection result in assay [8] is “protection against infection which was comparable to natural oleandomycin”.

For the molecule `CO[C@H]1C[C@H](O[C@H]2[C@H](C)[C@@H](O[C@@H]3O[C@H](C)C[C@H](N(C)C)[C@H]3O)[C@@H](C)C[C@@H](Cn3ccnc3)C(=O)[C@H](C)[C@@H](O)[C@@H](C)[C@@H](C)OC(=O)[C@@H]2C)O[C@@H](C)[C@@H]1OC(C)=O` [Example 24, 8,8a-deoxy-8-(imidazol-1-yl)methyl-4"-acetyloleandomycin], the MIC in assay [1] was 6.25 µg/mL (≈ 7.99 µM); in assay [2], at most 0.1 µg/mL; in assay [4], 0.39 µg/mL (≈ 0.499 µM); in assay [5], over 200 µg/mL; in assay [6], over 200 µg/mL; in assay [7], over 200 µg/mL. The protection against infection entry in assay [8] is “protection against infection which was comparable to natural oleandomycin”.

As a reminder, the MIC is the lowest concentration that inhibits growth of the organism. Higher therefore signals a less susceptible organism.
